In patent publication US10654843B2, “LMP7 inhibitors” (PRINCIPIA BIOPHARMA INC., priority 2014, dated 2020):
Like-named read-outs stand apart in the source and are kept apart here. Blank lines part the entries; values can stand above or below the compound they belong to.

What was measured:
[1] = molecular target: immunoproteasome (LMP7/B5i) (Homo sapiens, UniProt P20618+P28062); experiment: Caliper-based proteasome assay, immunoproteasome chymotrypsin-like activity; assay type: biochemical; settings: human recombinant immunoproteasome 0.3 nM, FAM-labeled peptide substrate 1 μM, room temperature 3 h
Experimental: (§1) A Caliper-based proteasome assay (Caliper Life Sciences, Hopkinton, Mass.) was used to measure inhibition of the chymotrypsin-like activity of both immunoproteasome (LMP7/B5i) and the constitutive proteasome (B5c) for a compound of Formula (I). Serial dilutions of test compounds were incubated with either human recombinant immunoproteasome or constitutive proteasome (0.3 nM enzyme) and a carboxyfluorescein (FAM)-labeled peptide substrate FAM-TYETFKSIMKKSPF-NH2 (1 μM) at room temperature for 3 h. The reaction buffer was 20 mM Hepes pH 7.4, 0.01% bovine serum albumin, 0.015% SDS, 0.5 mM EDTA, 1% DMSO. The reaction was then terminated with a buffer containing the known proteasome inhibitor carfilzomib at a concentration of 5 uM. The peptide cleavage reaction product was quantified on a Caliper LabChip 3000. Percent inhibition was calculated for each compound dilution and the concentration that produced 50% inhibition was calculated. This value is presented as the IC50.

[2] = molecular target: constitutive proteasome (B5c) (Homo sapiens, UniProt P20618+P28074); experiment: Caliper-based proteasome assay, constitutive proteasome chymotrypsin-like activity; assay type: biochemical; settings: human recombinant constitutive proteasome 0.3 nM, FAM-labeled peptide substrate 1 μM, room temperature 3 h
Experimental: as §1

[3] = molecular target: T1, proteasome activity in HT-29 cells (enriched in constitutive proteasome) (Homo sapiens, UniProt P28074); experiment: Inhibition of proteasome activity in cells (Proteasome-Glo), HT-29; assay type: cell-based; settings: 2 hr incubation, Suc-LLVY-aminoluciferin, read-out: HT29 IC50
T1 construct: endogenous in cells; host or cells: HT-29
Experimental: (§2) The cell-based effects of the compound of the present disclosure on immunoproteasome were determined by measuring inhibition of proteasome activity in cells using the Proteasome-Glo™ Cell-Based Reagent (Promega, Madison Wis). The Proteasome-Glo™ assay contains a specific luminogenic proteasome substrate in a buffer optimized for cell permeabilization, proteasome activity, and luciferase activity. For the chymotrypsin-like activity, the peptide substrate is Suc-LLVY-aminoluciferin (Succinyl-leucine-leucine-valine-tyrosine-aminoluciferin). Cleavage of the substrate by proteasome results in luminescent signal which is proportional to the proteasome activity. The cell line THP-1 (a monocytic leukemia cell line enriched in immunoproteasome), the cell line HT-29 (a colorectal adenocarcinoma cell line enriched in constitutive proteasome), and primary human peripheral blood mononuclear cells (PBMC) were used to assess proteasome activity. Cells were seeded in a 96-well plate at 10,000 cells per well in RPMI 1640 high glucose medium with 10% fetal bovine serum (FBS). Compound dilutions were added to cells starting at a concentration of 5 uM and decreasing in tripling dilutions. The final DMSO concentration was 1%. The concentration range was adjusted as needed for compounds of different potencies. The cells treated with compounds were incubated for 2 hr at 37° C. in 5% CO2. At the end of the 2 hour incubation period, cells were transferred to white 384 well assay plates. 20 uL of Proteasome-Glo™ Reagent was added to each well and incubated for 10 minutes at room temperature. The plate was read in the Analyst HT instrument (Molecular Devices, Sunnyvale, Calif.) using luminescence mode. The percent inhibition of activity was plotted as a function of log compound concentration. The IC50 was then calculated for each compound using Prism software from GraphPad Software Inc. (San Diego, Calif).

[4] = molecular target: T2, proteasome activity in primary human peripheral blood mononuclear cells (PBMC) (Homo sapiens, UniProt P28062); experiment: Inhibition of proteasome activity in cells (Proteasome-Glo), PBMC; assay type: cell-based; settings: 2 hr incubation, Suc-LLVY-aminoluciferin
T2 construct: endogenous in cells; host or cells: primary human PBMC
Experimental: as §2

[5] = molecular target: T3, proteasome activity in HT-29 cells (Homo sapiens, UniProt P28074); experiment: Durability of binding in cells, wash-out assay (Proteasome-Glo), HT-29; assay type: cell-based; settings: 2 hours incubation, washout
T3 construct: endogenous in cells; host or cells: HT-29
Experimental: The durability of binding of proteasome inhibitors was assessed in cells using wash-out assays and the Proteasome-Glo™ Reagent kit. THP-1 cells, HT-29 cells, or PBMC were incubated with an 8-fold dilution series of inhibitor for 2 hours. Following 2 hours of incubation, cells were washed using 3 occasions of centrifugation followed by resuspension in culture medium. Following inhibitor washout, cells were returned to culture for either 30 minutes, 4 hours, or 18 hours. Cells were then transferred to white 384 plates, and 20 uL of Proteasome-Glo™ Reagent was added to each well for 10 minutes. Plates were then read on an Analyst HT plate reader using luminescence mode. The percent inhibition of activity was plotted as a function of log compound concentration. The IC50 was then calculated for each compound using Prism software from GraphPad.

immunoproteasome (LMP7) = immunoproteasome (LMP7) (Homo sapiens, UniProt P20618+P28062); experiment: Recovery of enzymatic activity upon dialysis; assay type: biochemical; settings: FIG. 1, dialysis
Description: The dialysis assay was done to determine if a compound binds reversibly or irreversibly to immunoproteasome thereby resulting in reversible or irreversible inhibition of proteaseome activity. […] Partial or complete recovery of proteasome activity over extended periods of time during dialysis is indicative of slow off-rate kinetics due to formation of a reversible covalent bond. For rapidly reversible compounds complete recovery of proteosome activity upon dialysis is expected to be observed.
A solution containing immunoproteasome was incubated with a compound of the disclosure (test compound) or (S)-4-methyl-N—((S)-1-(((S)-4-methyl-1-((R)-2-methyloxiran-2-yl)-1-oxopentan-2-yl)amino)-1-oxo-3-phenylpropan-2-yl)-2-((S)-2-(2-morpholino-acetamido)-4-phenylbutanamido)-pentanamide (reference compound), an irreversible covalent inhibitor of the immunoproteosome which targets the catalytic threonine of the immunoproreasome subunits (see Kuhn, D. J., et al. 2007. Potent activity of carfilzomib, a novel, irreversible inhibitor of the ubiquitin-proteasome pathway, against preclinical models of multiple myeloma. Blood, 110(9), 3281-3290). […] Following dialysis, enzymatic activity was measured using the Caliper-based proteasome activity assay (Caliper Life Sciences, Hopkinton, Mass). […]

[6] = tested on: multiple myeloma cell lines and primary patient tumor cells; settings: including those resistant to conventional and novel prior therapies; cited from earlier work
[7] = tested on: human Th1/17 differentiation; settings: cited from earlier work
[8] = tested on: mouse Th1/17 differentiation; settings: cited from earlier work
[9] = tested on: B cell effector functions; settings: cited from earlier work
[10] = tested on: proinflammatory cytokines (IL-6, TNF-α, IL-23); settings: cited from earlier work
[11] = tested on: murine collagen-induced arthritis; settings: including inflammation and bone erosion; cited from earlier work
MRL/lpr lupus model = settings: cited from earlier work
[12] = tested on: murine DSS-induced colitis model; settings: cited from earlier work
[13] = tested on: Hashimoto's thyroiditis model; settings: autoantibody-driven model; cited from earlier work

- IC50 [1]: 27 nM
- IC50 [2]: 1030 nM
- IC50 [3]: 1370 nM
- IC50 [4]: 3 nM
- IC50 ([5]; 30 minutes in culture, read-out: HT29 (30 min) IC50): > 5 µM
- IC50 ([5]; 4 hours in culture, read-out: HT29 (4 h) IC50): > 5 µM
- binding to the immunoproteosome (immunoproteasome (LMP7)): reversible
SMILES: Cc1ccc(CNC(=O)[C@H](COc2cccc(C=C(C#N)C(=O)NC(C)(C)C)c2)NC(=O)[C@@H](NC(=O)c2cc(C)on2)[C@@H](C)O)cc1 [Example 3]

SMILES: CC1=C(C(=O)N[C@H](C)C(=O)N[C@@H](Cc2c[nH]c3ccccc23)C(=O)N[C@@H](Cc2ccccc2)C(=O)[C@@]2(C)CO2)Cc2ccccc21 [PR-924]
- growth of multiple myeloma cell lines and primary patient tumor cells [6]: inhibit growth

SMILES: COc1ccc(C[C@H](NC(=O)[C@H](C)NC(=O)CN2CCOCC2)C(=O)N[C@@H](Cc2ccccc2)C(=O)[C@@]2(C)CO2)cc1 [PR-957]
- human Th1/17 differentiation [7]: potently block
- mouse Th1/17 differentiation [8]: potently block
- B cell effector functions [9]: potently block
- production of proinflammatory cytokines (IL-6, TNF-α, IL-23) [10]: potently block
- disease activity in murine collagen-induced arthritis [11]: significantly inhibit disease activity
- anti-dsDNA IgG levels (MRL/lpr lupus model): reduced
- disease progression (MRL/lpr lupus model): prevented disease progression
- plasma cell numbers (MRL/lpr lupus model): reduced
- inflammation and tissue destruction [12]: reduced inflammation and tissue destruction
- efficacy in Hashimoto's thyroiditis model [13]: efficacious
